Test: solvent given as SMILES

## Cc1ccc2occ(CC(=O)NN)c2c1
In C1CCOC1
  absorption maximum: 292 nm
In CC#N
  absorption maximum: 289 nm
In CC(C)=O
  absorption maximum: 293 nm
In CCCCO
  absorption maximum: 290 nm
In CCCO
  absorption maximum: 281 nm
In CCO
  absorption maximum: 283 nm
In CCOC(C)=O
  absorption maximum: 296 nm
In CN(C)C=O
  absorption maximum: 313 nm
In CO
  absorption maximum: 279 nm
In ClCCl
  absorption maximum: 284 nm

## COC(=O)c1ccc(/C=C2\C=C(c3ccc(OC)c(OC)c3)NC2=O)cc1
In C1COCCO1
  absorption maximum: 454 nm

## c1ccc2c(-c3cc4c(ccc5sc(-c6cccc7ccccc67)cc54)s3)cccc2c1
In ClCCl
  absorption maximum: 333 nm

## CC(C)(C)c1ccc2c(c1)c1cc(C(C)(C)C)ccc1n2-c1cccc(-c2nc(-c3cccc(P(=O)(c4ccccc4)c4ccccc4)c3)nc(-c3cccc(P(=O)(c4ccccc4)c4ccccc4)c3)n2)c1
In C1CCOC1
  absorption maximum: 343 nm
In CC#N
  absorption maximum: 343 nm
In CC(C)=O
  absorption maximum: 343 nm
In CN(C)C=O
  absorption maximum: 343 nm
In Cc1ccccc1
  absorption maximum: 343 nm
In ClC(Cl)Cl
  absorption maximum: 343 nm
In ClCCl
  absorption maximum: 343 nm

## O=Cc1ccc2nc(C#Cc3ccc(N(c4ccc(C#Cc5nc6ccc(C=O)cc6s5)cc4)c4ccc(C#Cc5nc6ccc(C=O)cc6s5)cc4)cc3)sc2c1
In Cc1ccccc1
  absorption maximum: 421 nm

## Cc1cc(=O)oc2cc3cc(-c4cn(Cc5ccccc5)nn4)ccc3cc12
In CCO
  absorption maximum: 339 nm

## CC(C)[Si](C#Cc1c2ccccc2c(C#C[Si](C(C)C)(C(C)C)C(C)C)c2nc3cc4c(cc3nc12)C1c2ccccc2C4c2ccccc21)(C(C)C)C(C)C
In CCCCCC
  absorption maximum: 558 nm
In ClCCl
  absorption maximum: 562 nm

## CCn1c(-c2ccc(-c3ccc4c(c3)C(c3ccccc3)(c3ccccc3)c3ccccc3-4)cc2)c(-c2ccc3ccccc3c2)c(-c2ccc3ccccc3c2)c1-c1ccc(-c2ccc3c(c2)C(c2ccccc2)(c2ccccc2)c2ccccc2-3)cc1
In CCOC(C)=O
  absorption maximum: 325 nm

## CC1(C)C2=C(c3ccccc31)S(=O)(=O)c1ccccc12
In ClCCl
  absorption maximum: 355 nm

## CCOC(=O)c1c(-c2c(Cl)c3ccccc3oc2=O)nn(-c2ccc(Br)cc2)c1C(=O)OCC
In ClCCl
  absorption maximum: 322 nm

## CCOC(=O)c1c(-c2c(Cl)c3cc(C)ccc3oc2=O)nn(-c2cccc(Cl)c2)c1C(=O)OCC
In ClCCl
  absorption maximum: 331 nm

## CN(C)c1ccc(-c2nc3nc4ccccc4nc3n2-c2ccc(C(C)(C)C)cc2)cc1
In CC#N
  absorption maximum: 411 nm

## c1csc(-c2cnc(-c3cccs3)c3nonc23)c1
In C1CCCCC1
  absorption maximum: 461 nm
In CC(C)=O
  absorption maximum: 461 nm
In CCCCCC
  absorption maximum: 458 nm
In CCCO
  absorption maximum: 466 nm
In CCO
  absorption maximum: 460 nm
In CCOCC
  absorption maximum: 462 nm
In CO
  absorption maximum: 460 nm
In Cc1ccccc1
  absorption maximum: 465 nm
In ClC(Cl)(Cl)Cl
  absorption maximum: 465 nm
In ClC(Cl)Cl
  absorption maximum: 464 nm
In Nc1ccccc1
  absorption maximum: 474 nm
In O=[N+]([O-])c1ccccc1
  absorption maximum: 476 nm
In OCC(O)CO
  absorption maximum: 471 nm
In OCc1ccccc1
  absorption maximum: 473 nm
In c1ccc2ncccc2c1
  absorption maximum: 477 nm
In c1ccccc1
  absorption maximum: 465 nm
In c1ccncc1
  absorption maximum: 472 nm

## CCN1CCN(c2ccc(/N=N/c3cc(C(=O)OC)cc(C(=O)OC)c3)cc2)CC1
In CCOC(C)=O
  absorption maximum: 416 nm

## COc1ccc(C2=[N+]3C(=Nc4c(-c5cc(OC)c(OC)c(OC)c5)c(-c5ccc(C(C)(C)C)cc5)c(-c5ccc(OC)cc5)n4[B-]3(F)F)C(c3cc(OC)c(OC)c(OC)c3)=C2c2ccc(C(C)(C)C)cc2)cc1
In Cc1ccccc1
  absorption maximum: 694 nm

## CC(=O)c1cc(=O)n(C)c2cc(-c3ccc(N(C)C)cc3)sc12
In CC#N
  absorption maximum: 440 nm
In ClCCl
  absorption maximum: 448 nm

## CCN(CC)c1cc(F)c(C(=O)c2cc(F)c(N(CC)CC)cc2F)cc1F
In CCO
  absorption maximum: 369 nm

## c1ccc(-c2nc(-c3cccc4ccccc34)n3ccccc23)cc1
In C1CCCCC1
  absorption maximum: 362 nm
In CC#N
  absorption maximum: 355 nm
In CO
  absorption maximum: 350 nm
In ClCCl
  absorption maximum: 357 nm
In O
  absorption maximum: 367 nm

## O=C1c2ccccc2C2=Cc3cc4c(cc3B(O)N12)OCO4
In CC#N
  absorption maximum: 392 nm
In CO
  absorption maximum: 394 nm
In CS(C)=O
  absorption maximum: 396 nm
In ClC(Cl)Cl
  absorption maximum: 397 nm

## Cn1c2ccc(S(=O)(=O)Cl)cc2c(=O)c2cc(S(=O)(=O)Cl)ccc21
In CS(C)=O
  absorption maximum: 406 nm

## O=c1c2cc(C#Cc3ccc(Cl)cc3)ccc2nc2ccc(C#Cc3ccc(Cl)cc3)cn12
In ClCCl
  absorption maximum: 382 nm

## O=C1c2ccccc2C(=O)C1C1C(=O)c2c3ccccc3cc3cc4ccccc4c1c23 (configuration not stated)
In ClCCl
  absorption maximum: 505.72 nm

— the Deep4Chem optical property database
